The text below walks through data of patent US20220184394A1, “STATE-DEPENDENT PUDENDAL NERVE STIMULATION FOR BLADDER CONTROL” (Duke University, priority 2017, published 2022).

The subject of test [1] is bladder. The test is described as follows: Single-fill cystometry with intravesical PGE2 (model of OAB) in anesthetized rats. In kind it is in vivo, Female Wistar rats. The following applies: intravesical 100 μM PGE2 vs saline control. How it is done: Female Wistar rats (n=18) weighing between 237 and 296 g were anesthetized with urethane (1.2 g/kg SC, supplemented as necessary). Body temperature was monitored using an esophageal temperature probe and maintained at 36-38° C. with a water blanket. Heart rate and arterial blood oxygen saturation levels were monitored using a pulse oximeter (Nonin Medical Inc., 2500 A VET).
For cystometrogram (CMG) measurements, the bladder was exposed via a midline abdominal incision. A PE-90 catheter, the tip of which was heated to create a collar, was inserted into the bladder lumen through a small incision in the apex of the bladder dome and secured with a 6-0 silk suture. The abdominal wall was closed in layers with 3-0 silk suture. […]
The bladder was filled continuously with physiological saline at room temperature (2-8 ml/hr) using an infusion pump with an open urethra for at least 45 minutes during post-surgical recovery. The bladder was subsequently emptied and cystometrograms (CMGs) recorded. […] Voided and residual volumes were recorded and used to calculate bladder capacity and voiding efficiency. […] For these trials, voiding efficiency was calculated as the first voided volume divided by the bladder capacity, and “reflex” voiding efficiency was calculated as the sum of the two voided volumes divided by the bladder capacity. […]

Test [2] has as its system bladder. To be noted: intravesical PGE2, rats; cited from earlier work.
Test [3] concerns bladder. To be noted: PGE2 given to healthy women; cited from earlier work.

Entries after “also recorded” stand apart in the source; their conditions may differ. Read-outs that look alike come from different tables or passages of the source.

In the case of `CCCCC[C@H](O)/C=C/[C@H]1[C@H](O)CC(=O)[C@@H]1C/C=C\CCCC(=O)O` [PGE2, Prostaglandin E2], the Voiding efficiency entry in test [1] (n=9, p<0.001) is given as “increased voiding efficiency; also recorded: Voiding efficiency increased”. Further, the Bladder capacity result is reported as “consistently reduced bladder capacity; also recorded: decreased bladder capacity; also recorded: Bladder capacity decreased” in test [1] (urethane-anesthetized, n=9, p=0.02); “reduces bladder capacity” in test [2]; “reduced bladder capacities” in test [3]. The Urgency sensation result in test [3] is given as “a strong urgency sensation”.
